Test results reported in publication PMC9132415, “Identification of 1H-pyrazolo[3,4-b]pyridine derivatives as novel and potent TBK1 inhibitors: design, synthesis, biological evaluation, and molecular docking study” (Journal of Enzyme Inhibition and Medicinal Chemistry, 2022).
pIC50: −log10 of the molar value. Like-named read-outs stand apart in the source and are kept apart here.

Target: T1, TBK1 (Homo sapiens, UniProt Q9UHD2)
T1 sequence (Q9UHD2 1-729): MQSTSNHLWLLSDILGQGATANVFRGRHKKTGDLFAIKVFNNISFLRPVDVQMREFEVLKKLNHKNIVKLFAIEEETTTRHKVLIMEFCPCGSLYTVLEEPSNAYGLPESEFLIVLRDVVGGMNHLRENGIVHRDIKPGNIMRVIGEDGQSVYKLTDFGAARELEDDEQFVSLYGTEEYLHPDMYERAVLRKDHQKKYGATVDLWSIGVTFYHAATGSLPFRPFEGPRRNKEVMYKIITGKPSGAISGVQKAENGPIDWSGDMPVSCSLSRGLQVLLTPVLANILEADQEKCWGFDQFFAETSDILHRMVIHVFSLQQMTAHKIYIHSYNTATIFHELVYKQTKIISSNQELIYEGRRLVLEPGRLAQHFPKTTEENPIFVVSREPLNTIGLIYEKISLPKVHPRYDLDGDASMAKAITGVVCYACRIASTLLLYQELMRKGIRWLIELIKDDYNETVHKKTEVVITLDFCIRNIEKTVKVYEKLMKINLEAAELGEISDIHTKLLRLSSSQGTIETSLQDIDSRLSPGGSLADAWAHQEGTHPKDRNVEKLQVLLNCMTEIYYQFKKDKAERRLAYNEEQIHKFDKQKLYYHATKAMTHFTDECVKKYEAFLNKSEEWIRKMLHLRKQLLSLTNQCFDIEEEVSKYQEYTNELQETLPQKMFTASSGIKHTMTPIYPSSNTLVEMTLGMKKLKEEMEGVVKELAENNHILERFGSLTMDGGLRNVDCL
Experiment: FRET-based Z'-LYTE TBK1 enzymatic assay
Type: biochemical
Design: purchased Thermo Scientific A31513
Details: for inhibition at 0.01 µM / inhibition at 0.1 µM / inhibition at 1 µM / inhibition at 10 µM / inhibition at 0.001 µM / pIC50 / inhibition at 0.0001 µM: 100 µM ATP; for inhibition at 0.001 µM: compound at 1 nM, read-out: TBK1 inhibition (%) 1 nM; for pIC50: mean of two separate experiments; for inhibition at 0.0001 µM: compound at 0.1 nM, read-out: TBK1 inhibition (%) 0.1 nM

[1] = read-out: TBK1 inhibition (%) 10 nM, compound at 10 nM
[2] = read-out: TBK1 inhibition (%) 100 nM, compound at 100 nM
[3] = read-out: TBK1 inhibition (%) 1 μM, compound at 1 μM
[4] = read-out: TBK1 inhibition (%) 10 μM, compound at 10 μM
[5] = compound at 10 nM, read-out: TBK1 inhibition (%) 10 nM
[6] = compound at 100 nM, read-out: TBK1 inhibition (%) 100 nM
[7] = compound at 1 μM, read-out: TBK1 inhibition (%) 1 μM
[8] = compound at 10 μM, read-out: TBK1 inhibition (%) 10 μM

| Compound | inhibition at 0.1 µM [2] [%] | inhibition at 1 µM [3] [%] | inhibition at 10 µM [4] [%] | inhibition at 0.01 µM [5] [%] | inhibition at 0.1 µM [6] [%] | inhibition at 1 µM [7] [%] | pIC50 | further results |
| --- | --- | --- | --- | --- | --- | --- | --- | --- |
| CN1CCN(Cc2ccc(-c3cnc4[nH]nc(NCCCn5ccnc5)c4c3)cc2)CC1 [Compound 12i] | 15.2 | 19.9 | 7.1 |  |  |  |  | inhibition at 0.01 µM [1]: 16.2% |
| CN1CCN(Cc2ccc(-c3cnc4[nH]nc(NCCCN5CCOCC5)c4c3)cc2)CC1 [Compound 12h] | -7.8 | -4.3 | -5.2 |  |  |  |  |  |
| NS(=O)(=O)c1ccc(-c2cnc3[nH]nc(-c4cnn(CCN5CCOCC5)c4)c3c2)cc1 [Compound 15n] | -8.9 | -15 | -12.5 |  |  |  |  |  |
| CC(=O)Nc1cc(-c2cnc3[nH]nc(-c4ccc5ncn(C(C)C)c5c4)c3c2)ccn1 [Compound 15j] |  |  |  | 31.5 | 67.1 | 104 | 7.17 | inhibition at 0.001 µM: 14.2%; inhibition at 10 µM [8]: 103% |
| Cc1nc2c(F)cc(-c3n[nH]c4ncc(-c5ccc(S(N)(=O)=O)cc5)cc34)cc2o1 [Compound 15p] | 30.6 | 37.1 | 41.1 |  |  |  |  | inhibition at 0.01 µM [1]: 32% |
| CC(C)n1c(C(F)(F)F)nc2c(F)cc(-c3n[nH]c4ncc(-c5ccc(S(N)(=O)=O)cc5)cc34)cc21 [Compound 15w] | 27.1 |  |  |  |  |  |  | TBK1 inhibitory activity (in words): almost lost TBK1 activity; inhibition at 0.01 µM [1]: 10.7% |
| Cc1nc2cc(-c3n[nH]c4ncc(-c5ccc(S(N)(=O)=O)cc5)cc34)cc(F)c2o1 [Compound 15r] | 10.8 | 5.7 | 56.8 |  |  |  |  | inhibition at 0.01 µM [1]: -2.6% |
| NS(=O)(=O)c1ccc(-c2cnc3[nH]nc(-c4cnn(CCO)c4)c3c2)cc1 [Compound 15o] | -2.7 | -7.4 | 23.3 |  |  |  |  |  |
| CC(C)n1cnc2ccc(-c3n[nH]c4ncc(-c5ccc(C(N)=O)cc5)cc34)cc21 [Compound 15h] |  |  |  | 29.1 | 75.6 | 104 | 7.23 | inhibition at 0.001 µM: 24%; inhibition at 10 µM [8]: 103% |
| CC(C)n1cnc2ccc(-c3n[nH]c4ncc(-c5ccc(S(N)(=O)=O)cc5)cc34)cc21 [Compound 15i] |  |  |  | 62.3 | 75.4 | 105 | 8.07 | fold lower TBK1 IC50 than compound 15e (compared with 15e): ~10 times; inhibition at 0.001 µM: 47.3%; inhibition at 10 µM [8]: 111% |
| COc1ccc(CCNc2n[nH]c3ncc(-c4ccc(CN5CCN(C)CC5)cc4)cc23)cc1 [Compound 12f] | -9.7 | -7.9 | -0.5 |  |  |  |  |  |
| NS(=O)(=O)c1ccc(-c2cnc3[nH]nc(-c4cnn(C5CCOCC5)c4)c3c2)cc1 [Compound 15l] | -7.2 | -0.6 | 21.9 |  |  |  |  |  |
| Cc1nc2ccc(-c3n[nH]c4ncc(-c5ccc(S(N)(=O)=O)cc5)cc34)cc2n1C(C)C [Compound 15s] |  |  |  | 68.6 | 76.9 | 97.2 | 8.21 | inhibition at 0.001 µM: 45.5% |
| CC(C)n1cnc2ccc(-c3n[nH]c4ncc(-c5ccc(C(=O)N6CCN(C)CC6)cc5)cc34)cc21 [Compound 15g] |  |  |  | 29.9 | 91.7 | 108 | 7.59 | inhibition at 0.001 µM: 8.6%; inhibition at 10 µM [8]: 108% |
| Cc1nc2c(F)cc(-c3n[nH]c4ncc(-c5ccc(S(N)(=O)=O)cc5)cc34)cc2n1C1CC1 [Compound 15v] |  |  |  | 49.7 | 70.3 | 87.4 | 7.51 | inhibition at 0.0001 µM: 37.7%; inhibition at 0.001 µM: 42.5% |
| CN1CCN(Cc2ccc(-c3cnc4[nH]nc(-c5ccc6[nH]cnc6c5)c4c3)cc2)CC1 [Compound 15d] |  |  |  | 18 | 52.5 | 84.1 | 6.88 | inhibition at 10 µM [8]: 102% |
| Cc1nc2c(F)cc(-c3n[nH]c4ncc(-c5ccc(S(N)(=O)=O)cc5)cc34)cc2n1C(C)C [Compound 15t] |  |  |  | 78 | 79.5 | 99.1 | 9.10 | fold increase of TBK1 activity compared with compound 15i (compared with 15i): 10 times; inhibition at 0.0001 µM: 43.1%; inhibition at 0.001 µM: 61.6% |
| CN1CCN(Cc2ccc(-c3cnc4[nH]nc(NCc5ccccc5)c4c3)cc2)CC1 [Compound 12a] | -14.5 | -13.6 | -8 |  |  |  |  |  |
| Cc1nc2c(F)cc(-c3c[nH]c4ncc(-c5ccc(S(N)(=O)=O)cc5)cc34)cc2n1C(C)C [Compound 15ab] |  |  |  | 70.9 | 72.9 | 90.3 | 8.44 | fold reduced activity against TBK1 compared to 15t (compared to 15t): 8 fold; inhibition at 0.0001 µM: 43.1%; inhibition at 0.001 µM: 60.1% |
| CN1CCN(Cc2ccc(-c3cnc4[nH]nc(NCc5ccc(Cl)cc5Cl)c4c3)cc2)CC1 [Compound 12c] | -30.1 | -6.7 | -2 |  |  |  |  |  |
| CN1CCN(Cc2ccc(-c3cnc4[nH]nc(-c5cccc6cnccc56)c4c3)cc2)CC1 [Compound 15f] |  |  |  |  | 28.7 | 81.4 | 6.54 | inhibition at 10 µM [8]: 101% |
| CC(C)n1c(C(F)(F)F)nc2c(F)cc(-c3n[nH]c4ncc(-c5cccc(S(N)(=O)=O)c5)cc34)cc21 [Compound 15aa] | 36.8 | 48.3 |  |  |  |  |  | inhibition at 0.01 µM [1]: 14.1% |
| NS(=O)(=O)c1ccc(-c2cnc3[nH]nc(-c4ccc(N5CCOCC5)cc4)c3c2)cc1 [Compound 15m] | -8.9 | -6 | -11 |  |  |  |  |  |
| CN1CCN(Cc2ccc(-c3cnc4[nH]nc(NCCc5ccc(F)cc5)c4c3)cc2)CC1 [Compound 12e] | -1.4 | -2.4 | -5 |  |  |  |  |  |
| CN1CCN(Cc2ccc(-c3cnc4[nH]nc(NCCCc5ccccc5)c4c3)cc2)CC1 [Compound 12d] | -5.6 | -5.8 | -4.7 |  |  |  |  |  |
| CN1CCN(Cc2ccc(-c3cnc4[nH]nc(-c5ccc6[nH]ccc6c5)c4c3)cc2)CC1 [Compound 15a] | 13.2 | 36.5 | 83 |  |  |  |  |  |
| CN1CCN(Cc2ccc(-c3cnc4[nH]nc(-c5cccc(N)c5)c4c3)cc2)CC1 [Compound 15b] | 11 | 14.3 | 47.9 |  |  |  |  |  |
| COC(=O)c1cccc(-c2cnc3[nH]nc(-c4ccc5ncn(C(C)C)c5c4)c3c2)c1 [Compound 15k] |  |  |  | 19.5 | 45 | 82.6 | 6.54 | inhibition at 10 µM [8]: 106% |
